Measured values: the kinase profiling compilation of Christmann-Franck et al. (2016)

Legend:
Assay in all cases: KINOMEscan competition binding
Conditions in all cases: compound 10.0 µM
CDK5 (human) = CDK5 (human) (UniProt Q00535)
RET (human) = RET (human) (UniProt P07949)
STK10 (human) = STK10 (human) (UniProt O94804)
WEE1 (human) = WEE1 (human) (UniProt P30291)
CDK2 (human) = CDK2 (human) (UniProt P24941)
[1] = tested on: ABL1 (human), P00519 [F317L]
MAP3K10 (human) = MAP3K10 (human) (UniProt Q02779)
SBK1 (human) = SBK1 (human) (UniProt Q52WX2)
ACVRL1 (human) = ACVRL1 (human) (UniProt P37023)
TLK2 (human) = TLK2 (human) (UniProt Q86UE8)
NUAK1 (human) = NUAK1 (human) (UniProt O60285)
MYLK2 (human) = MYLK2 (human) (UniProt Q9H1R3)
MAP3K11 (human) = MAP3K11 (human) (UniProt Q16584)
[2] = tested on: PIK3CA (human), P42336 [H1047L]
MAPKAPK5 (human) = MAPKAPK5 (human) (UniProt Q8IW41)
EPHA5 (human) = EPHA5 (human) (UniProt P54756)
CLK1 (human) = CLK1 (human) (UniProt P49759)
AURKC (human) = AURKC (human) (UniProt Q9UQB9)
YSK4 (human) = YSK4 (human) (UniProt Q56UN5)
RIPK2 (human) = RIPK2 (human) (UniProt O43353)
SIK1 (human) = SIK1 (human) (UniProt P57059)
ABL1 (human) = ABL1 (human) (UniProt P00519)
ZAP70 (human) = ZAP70 (human) (UniProt P43403)
[3] = tested on: PIK3CA (human), P42336 [E542K]
PIK3CA (human) = PIK3CA (human) (UniProt P42336)
NEK2 (human) = NEK2 (human) (UniProt P51955)
SIK2 (human) = SIK2 (human) (UniProt Q9H0K1)
CAMK4 (human) = CAMK4 (human) (UniProt Q16566)
ULK2 (human) = ULK2 (human) (UniProt Q8IYT8)
RPS6KA5 KD2 (human) = RPS6KA5 KD2 (human) (UniProt O75582)
CDK3 (human) = CDK3 (human) (UniProt Q00526)
MAP3K3 (human) = MAP3K3 (human) (UniProt Q99759)

Chain of CAMK4 (human) (Q16566 whole entry, looked up): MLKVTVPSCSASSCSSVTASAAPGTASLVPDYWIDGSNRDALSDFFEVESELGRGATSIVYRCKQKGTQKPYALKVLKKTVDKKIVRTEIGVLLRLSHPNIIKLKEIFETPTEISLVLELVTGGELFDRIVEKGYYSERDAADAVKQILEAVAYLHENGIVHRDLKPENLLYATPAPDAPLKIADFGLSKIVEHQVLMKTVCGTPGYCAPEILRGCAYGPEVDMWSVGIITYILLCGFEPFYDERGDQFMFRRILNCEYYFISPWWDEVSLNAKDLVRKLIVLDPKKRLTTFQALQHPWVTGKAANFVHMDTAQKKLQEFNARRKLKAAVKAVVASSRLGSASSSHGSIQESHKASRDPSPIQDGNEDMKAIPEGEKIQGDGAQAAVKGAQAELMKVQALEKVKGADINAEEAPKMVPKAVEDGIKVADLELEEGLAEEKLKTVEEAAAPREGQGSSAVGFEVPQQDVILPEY
Chain of CDK3 (human) (Q00526 whole entry, looked up): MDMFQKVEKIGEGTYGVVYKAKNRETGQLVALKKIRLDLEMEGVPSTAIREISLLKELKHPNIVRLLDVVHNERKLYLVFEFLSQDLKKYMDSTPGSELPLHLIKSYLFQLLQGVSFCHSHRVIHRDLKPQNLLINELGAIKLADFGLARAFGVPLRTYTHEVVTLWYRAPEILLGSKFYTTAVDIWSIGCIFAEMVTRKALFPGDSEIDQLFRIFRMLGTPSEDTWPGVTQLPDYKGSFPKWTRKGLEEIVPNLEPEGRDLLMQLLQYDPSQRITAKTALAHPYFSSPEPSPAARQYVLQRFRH
Chain of MAP3K10 (human) (Q02779 whole entry, looked up): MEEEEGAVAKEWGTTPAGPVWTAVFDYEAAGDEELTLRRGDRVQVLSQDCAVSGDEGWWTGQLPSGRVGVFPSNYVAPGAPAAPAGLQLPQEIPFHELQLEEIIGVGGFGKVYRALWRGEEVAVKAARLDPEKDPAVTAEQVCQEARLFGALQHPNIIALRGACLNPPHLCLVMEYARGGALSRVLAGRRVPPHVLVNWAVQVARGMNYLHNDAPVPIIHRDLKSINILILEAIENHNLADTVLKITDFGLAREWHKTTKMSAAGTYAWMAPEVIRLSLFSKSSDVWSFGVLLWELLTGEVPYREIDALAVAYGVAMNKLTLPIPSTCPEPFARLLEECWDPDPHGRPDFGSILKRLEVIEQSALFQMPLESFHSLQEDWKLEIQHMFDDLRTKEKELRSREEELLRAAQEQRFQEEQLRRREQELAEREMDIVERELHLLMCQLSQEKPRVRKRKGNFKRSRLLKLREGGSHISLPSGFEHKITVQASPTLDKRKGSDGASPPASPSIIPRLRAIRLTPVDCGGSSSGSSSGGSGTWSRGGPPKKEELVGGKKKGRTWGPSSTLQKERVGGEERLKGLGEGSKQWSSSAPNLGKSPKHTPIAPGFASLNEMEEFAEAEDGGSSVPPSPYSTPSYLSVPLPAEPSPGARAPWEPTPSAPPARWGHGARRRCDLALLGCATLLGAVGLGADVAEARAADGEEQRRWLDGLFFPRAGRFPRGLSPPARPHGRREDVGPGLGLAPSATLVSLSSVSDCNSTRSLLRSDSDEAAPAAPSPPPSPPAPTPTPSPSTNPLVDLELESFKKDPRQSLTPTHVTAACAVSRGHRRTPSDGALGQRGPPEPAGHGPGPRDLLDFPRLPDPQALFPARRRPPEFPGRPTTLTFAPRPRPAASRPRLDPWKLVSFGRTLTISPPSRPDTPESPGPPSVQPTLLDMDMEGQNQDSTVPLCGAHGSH
Chain of NEK2 (human) (P51955 whole entry, looked up): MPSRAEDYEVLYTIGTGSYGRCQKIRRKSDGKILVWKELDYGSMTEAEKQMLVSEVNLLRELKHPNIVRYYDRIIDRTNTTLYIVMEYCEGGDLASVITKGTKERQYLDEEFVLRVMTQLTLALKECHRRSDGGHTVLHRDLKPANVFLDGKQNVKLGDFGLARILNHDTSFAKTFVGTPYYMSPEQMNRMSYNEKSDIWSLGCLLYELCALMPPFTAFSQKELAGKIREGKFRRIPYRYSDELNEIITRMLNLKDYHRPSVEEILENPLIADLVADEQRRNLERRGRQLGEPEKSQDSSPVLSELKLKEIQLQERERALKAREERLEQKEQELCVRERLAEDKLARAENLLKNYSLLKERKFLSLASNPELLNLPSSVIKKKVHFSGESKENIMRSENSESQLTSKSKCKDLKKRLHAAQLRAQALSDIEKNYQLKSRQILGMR
Chain of ZAP70 (human) (P43403 whole entry, looked up): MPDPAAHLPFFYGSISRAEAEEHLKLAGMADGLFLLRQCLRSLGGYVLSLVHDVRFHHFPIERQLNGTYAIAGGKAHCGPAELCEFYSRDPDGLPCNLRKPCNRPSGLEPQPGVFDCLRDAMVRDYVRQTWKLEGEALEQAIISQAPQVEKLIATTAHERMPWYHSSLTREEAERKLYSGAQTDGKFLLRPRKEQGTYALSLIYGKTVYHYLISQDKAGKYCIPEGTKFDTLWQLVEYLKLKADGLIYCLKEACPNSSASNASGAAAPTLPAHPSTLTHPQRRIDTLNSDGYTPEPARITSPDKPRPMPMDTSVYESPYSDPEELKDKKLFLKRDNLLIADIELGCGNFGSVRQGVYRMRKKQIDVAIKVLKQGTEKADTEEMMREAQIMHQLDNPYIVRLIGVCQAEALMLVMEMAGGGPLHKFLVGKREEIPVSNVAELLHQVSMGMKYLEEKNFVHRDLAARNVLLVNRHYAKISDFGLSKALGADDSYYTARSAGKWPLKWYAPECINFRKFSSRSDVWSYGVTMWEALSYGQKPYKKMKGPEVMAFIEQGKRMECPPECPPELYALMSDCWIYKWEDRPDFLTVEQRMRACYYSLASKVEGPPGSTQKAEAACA
Chain of PIK3CA (human), P42336 [E542K] (P42336 whole entry E542K, looked up): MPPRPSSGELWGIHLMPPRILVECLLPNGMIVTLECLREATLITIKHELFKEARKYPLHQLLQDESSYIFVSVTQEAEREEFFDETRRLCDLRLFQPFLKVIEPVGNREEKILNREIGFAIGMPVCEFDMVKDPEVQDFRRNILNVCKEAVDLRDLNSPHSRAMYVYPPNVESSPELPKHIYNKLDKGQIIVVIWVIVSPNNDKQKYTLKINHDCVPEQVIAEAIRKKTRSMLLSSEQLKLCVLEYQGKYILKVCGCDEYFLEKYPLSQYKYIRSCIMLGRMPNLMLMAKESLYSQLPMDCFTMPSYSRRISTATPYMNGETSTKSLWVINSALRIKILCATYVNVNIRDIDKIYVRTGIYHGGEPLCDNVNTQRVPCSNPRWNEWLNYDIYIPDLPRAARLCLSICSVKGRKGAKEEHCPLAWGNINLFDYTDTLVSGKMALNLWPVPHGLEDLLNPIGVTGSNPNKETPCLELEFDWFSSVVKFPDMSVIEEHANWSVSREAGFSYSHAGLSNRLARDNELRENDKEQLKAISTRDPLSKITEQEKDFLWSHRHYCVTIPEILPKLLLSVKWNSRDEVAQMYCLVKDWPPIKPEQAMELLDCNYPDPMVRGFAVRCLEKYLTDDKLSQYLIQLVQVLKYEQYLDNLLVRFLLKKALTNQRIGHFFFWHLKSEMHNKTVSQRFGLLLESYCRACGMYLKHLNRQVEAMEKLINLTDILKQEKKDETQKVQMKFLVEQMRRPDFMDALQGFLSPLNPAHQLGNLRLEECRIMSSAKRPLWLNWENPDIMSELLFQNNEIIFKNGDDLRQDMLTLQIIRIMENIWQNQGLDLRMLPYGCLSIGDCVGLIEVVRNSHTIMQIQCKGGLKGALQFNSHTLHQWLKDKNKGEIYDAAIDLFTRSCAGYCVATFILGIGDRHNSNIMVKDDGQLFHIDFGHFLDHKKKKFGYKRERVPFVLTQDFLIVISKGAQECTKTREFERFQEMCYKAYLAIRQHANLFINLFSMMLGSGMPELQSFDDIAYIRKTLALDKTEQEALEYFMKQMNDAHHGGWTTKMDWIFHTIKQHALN
Chain of STK10 (human) (O94804 whole entry, looked up): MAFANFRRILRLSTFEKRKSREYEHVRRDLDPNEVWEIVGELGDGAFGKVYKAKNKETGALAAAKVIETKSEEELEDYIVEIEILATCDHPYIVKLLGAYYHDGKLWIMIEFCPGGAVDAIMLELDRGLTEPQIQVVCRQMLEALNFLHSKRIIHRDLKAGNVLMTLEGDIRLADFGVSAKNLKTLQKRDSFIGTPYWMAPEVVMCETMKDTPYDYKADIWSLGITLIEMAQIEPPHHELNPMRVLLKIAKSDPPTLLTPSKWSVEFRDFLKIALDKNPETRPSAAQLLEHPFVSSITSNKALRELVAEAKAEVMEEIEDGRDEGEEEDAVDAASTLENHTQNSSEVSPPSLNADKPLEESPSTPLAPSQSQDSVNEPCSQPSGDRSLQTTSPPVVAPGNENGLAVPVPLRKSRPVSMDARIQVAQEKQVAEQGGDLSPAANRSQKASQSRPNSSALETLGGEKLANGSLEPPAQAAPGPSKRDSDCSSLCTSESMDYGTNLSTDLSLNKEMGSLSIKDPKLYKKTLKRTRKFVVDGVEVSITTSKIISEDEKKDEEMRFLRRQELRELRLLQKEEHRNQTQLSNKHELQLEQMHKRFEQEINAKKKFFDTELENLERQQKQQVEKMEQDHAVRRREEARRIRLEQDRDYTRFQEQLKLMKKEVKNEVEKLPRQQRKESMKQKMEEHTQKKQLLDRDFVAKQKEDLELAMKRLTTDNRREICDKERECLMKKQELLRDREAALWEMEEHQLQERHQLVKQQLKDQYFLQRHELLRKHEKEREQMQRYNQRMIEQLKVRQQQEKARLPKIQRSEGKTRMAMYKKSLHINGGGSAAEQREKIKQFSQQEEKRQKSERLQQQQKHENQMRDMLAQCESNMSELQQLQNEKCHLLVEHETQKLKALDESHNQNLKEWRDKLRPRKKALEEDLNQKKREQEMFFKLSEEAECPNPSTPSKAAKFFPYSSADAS
Chain of PIK3CA (human), P42336 [H1047L] (P42336 whole entry H1047L, looked up): as the sequence (P42336 whole entry E542K, looked up) above, with K542E, H1047L counted along it
Chain of PIK3CA (human) (P42336 whole entry, looked up): as the sequence (P42336 whole entry E542K, looked up) above, with K542E counted along it

SMILES: Cc1cn(-c2cc(C(=O)Nc3ccc(C)c(NC(=O)c4ccno4)c3)cc(C(F)(F)F)c2)cn1
- kinase still bound, per cent of control (CDK5 (human)): 100%
- kinase still bound, per cent of control (RET (human)): 100%
- kinase still bound, per cent of control (STK10 (human)): 100%
- kinase still bound, per cent of control (WEE1 (human)): 100%
- kinase still bound, per cent of control (CDK2 (human)): 100%
- kinase still bound, per cent of control [1]: 1.4%
- kinase still bound, per cent of control (MAP3K10 (human)): 100%
- kinase still bound, per cent of control (SBK1 (human)): 100%
- kinase still bound, per cent of control (ACVRL1 (human)): 100%
- kinase still bound, per cent of control (TLK2 (human)): 100%
- kinase still bound, per cent of control (NUAK1 (human)): 100%
- kinase still bound, per cent of control (MYLK2 (human)): 100%
- kinase still bound, per cent of control (MAP3K11 (human)): 100%
- kinase still bound, per cent of control [2]: 100%
- kinase still bound, per cent of control (MAPKAPK5 (human)): 100%
- kinase still bound, per cent of control (EPHA5 (human)): 17%
- kinase still bound, per cent of control (CLK1 (human)): 100%
- kinase still bound, per cent of control (AURKC (human)): 100%
- kinase still bound, per cent of control (YSK4 (human)): 100%
- kinase still bound, per cent of control (RIPK2 (human)): 100%
- kinase still bound, per cent of control (SIK1 (human)): 100%
- kinase still bound, per cent of control (ABL1 (human)): 8%
- kinase still bound, per cent of control (ZAP70 (human)): 100%
- kinase still bound, per cent of control [3]: 100%
- kinase still bound, per cent of control (PIK3CA (human)): 100%
- kinase still bound, per cent of control (NEK2 (human)): 100%
- kinase still bound, per cent of control (SIK2 (human)): 100%
- kinase still bound, per cent of control (CAMK4 (human)): 100%
- kinase still bound, per cent of control (ULK2 (human)): 100%
- kinase still bound, per cent of control (RPS6KA5 KD2 (human)): 100%
- kinase still bound, per cent of control (CDK3 (human)): 100%
- kinase still bound, per cent of control (MAP3K3 (human)): 100%
